Source: PMC8508710, “Biochemical Characterization of 13-Lipoxygenases of Arabidopsis thaliana” (International Journal of Molecular Sciences, 2021)

Key:
[1] = target: T1, LOX6 (Arabidopsis thaliana, UniProt Q9CAG3); experiment: LOX6 activity, spectrophotometric (conjugated diene formation at 234 nm); details: for Photometry Relative activity (%) LOX6: enzyme 0.225 µg/µL incubated 10 min 30 °C with 280 µM chemical, 4.8 µM LeA, 50 mM Tris-HCl pH 7.2, vs solvent control; for Relative Activity (%) LOX6: E. coli lysate in 50 mM TRIS pH 8.0 diluted 1:10, 50 mM HEPES pH 8.0 + 1 mM metal salt, LeA, 234 nm
T1 sequence (Q9CAG3 41-917): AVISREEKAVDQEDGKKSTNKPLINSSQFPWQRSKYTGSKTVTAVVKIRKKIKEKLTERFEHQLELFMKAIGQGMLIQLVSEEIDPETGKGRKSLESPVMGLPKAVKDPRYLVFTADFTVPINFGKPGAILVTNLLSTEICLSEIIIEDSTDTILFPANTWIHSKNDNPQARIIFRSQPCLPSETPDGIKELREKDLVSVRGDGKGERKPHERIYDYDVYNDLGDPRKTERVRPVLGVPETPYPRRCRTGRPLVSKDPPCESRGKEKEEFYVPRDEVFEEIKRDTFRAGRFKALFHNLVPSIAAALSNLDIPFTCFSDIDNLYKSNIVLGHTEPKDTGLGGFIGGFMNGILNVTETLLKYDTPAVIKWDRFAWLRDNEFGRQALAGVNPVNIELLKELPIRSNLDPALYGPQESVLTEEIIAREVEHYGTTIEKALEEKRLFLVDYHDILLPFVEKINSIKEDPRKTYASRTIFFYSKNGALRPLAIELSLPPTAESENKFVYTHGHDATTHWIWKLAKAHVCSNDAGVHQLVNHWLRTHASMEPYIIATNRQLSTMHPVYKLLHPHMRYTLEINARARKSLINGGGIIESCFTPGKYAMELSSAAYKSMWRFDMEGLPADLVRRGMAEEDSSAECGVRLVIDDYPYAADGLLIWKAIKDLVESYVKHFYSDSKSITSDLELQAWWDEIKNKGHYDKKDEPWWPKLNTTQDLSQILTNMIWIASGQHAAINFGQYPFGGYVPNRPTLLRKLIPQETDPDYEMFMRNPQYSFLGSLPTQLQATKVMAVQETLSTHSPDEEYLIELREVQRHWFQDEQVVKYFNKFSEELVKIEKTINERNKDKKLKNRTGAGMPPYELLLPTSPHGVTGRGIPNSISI

[2] = target: T2, LOX3 (Arabidopsis thaliana, UniProt Q9LNR3); experiment: LOX3 activity, spectrophotometric (conjugated diene formation at 234 nm); details: for Mode of inhibition: Michaelis–Menten, Lineweaver–Burk and Dixon plots; for Photometry Relative activity (%) LOX3: enzyme 0.225 µg/µL incubated 10 min 30 °C with 280 µM chemical, 4.8 µM LeA, 50 mM Tris-HCl pH 7.2, vs solvent control; for Relative Activity (%) LOX3: E. coli lysate in 50 mM TRIS pH 8.0 diluted 1:10, 50 mM HEPES pH 8.0 + 1 mM metal salt, LeA, 234 nm
T2 sequence (Q9LNR3 71-919): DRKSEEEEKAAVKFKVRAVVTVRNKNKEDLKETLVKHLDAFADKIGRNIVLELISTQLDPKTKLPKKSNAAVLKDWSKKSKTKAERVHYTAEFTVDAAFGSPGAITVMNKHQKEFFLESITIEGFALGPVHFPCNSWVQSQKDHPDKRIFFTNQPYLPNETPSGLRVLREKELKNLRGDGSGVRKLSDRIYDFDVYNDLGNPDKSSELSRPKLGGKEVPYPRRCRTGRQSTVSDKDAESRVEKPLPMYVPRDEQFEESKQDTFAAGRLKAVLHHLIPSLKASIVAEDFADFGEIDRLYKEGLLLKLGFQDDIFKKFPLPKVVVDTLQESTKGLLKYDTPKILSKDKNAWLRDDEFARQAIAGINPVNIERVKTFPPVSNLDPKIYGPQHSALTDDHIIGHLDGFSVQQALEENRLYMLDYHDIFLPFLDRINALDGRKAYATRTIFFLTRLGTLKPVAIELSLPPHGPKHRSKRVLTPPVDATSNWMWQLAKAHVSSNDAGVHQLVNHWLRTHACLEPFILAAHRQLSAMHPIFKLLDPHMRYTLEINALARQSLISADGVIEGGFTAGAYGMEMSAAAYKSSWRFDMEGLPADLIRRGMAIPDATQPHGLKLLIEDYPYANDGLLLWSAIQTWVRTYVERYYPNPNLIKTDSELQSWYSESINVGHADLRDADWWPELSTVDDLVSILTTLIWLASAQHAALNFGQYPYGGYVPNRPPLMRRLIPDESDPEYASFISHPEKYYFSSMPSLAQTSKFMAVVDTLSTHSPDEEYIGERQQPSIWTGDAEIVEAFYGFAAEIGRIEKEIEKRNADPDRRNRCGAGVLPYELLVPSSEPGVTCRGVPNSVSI

[3] = target: T1, LOX6; experiment: LOX6 activity, oxygen electrode (polarography); format: biochemical; parameters: made in house; host or cells: E. coli Nico21(DE3), pEXP5-NT/TOPO; details: for activity at 280 µM: enzyme incubated with 280 µM chemical (1/10 vol of 2.8 mM), injected into 30 µM LeA, 50 mM Tris-HCl pH 7.2, vs solvent control, read-out: Polarography Relative Activity (%) LOX6; for Increase of LOX6-catalyzed oxygen consumption: 1 mM cation, LeA 30 µM, pH 8.0; for Relative Activity (%) LOX6: 1 mM metal salt, LeA 30 µM in 20 mM HEPES pH 8.0, oxygen consumption vs control without metal
[4] = target: T3, LOX2 (Arabidopsis thaliana, UniProt P38418); experiment: LOX2 activity, oxygen electrode (polarography); format: biochemical; parameters: made in house; host or cells: E. coli Nico21(DE3), pET15b; details: for activity at 280 µM: enzyme incubated with 280 µM chemical (1/10 vol of 2.8 mM), injected into 30 µM LeA, 50 mM Tris-HCl pH 7.2, vs solvent control, read-out: Polarography Relative Activity (%) LOX2; for Increase of LOX2 activity in comparison to control: 1 mM cation, LeA 30 µM, pH 8.0; for Relative Activity (%) LOX2: 1 mM metal salt, LeA 30 µM in 20 mM HEPES pH 8.0, oxygen consumption vs control without metal
T3 sequence (P38418 71-896): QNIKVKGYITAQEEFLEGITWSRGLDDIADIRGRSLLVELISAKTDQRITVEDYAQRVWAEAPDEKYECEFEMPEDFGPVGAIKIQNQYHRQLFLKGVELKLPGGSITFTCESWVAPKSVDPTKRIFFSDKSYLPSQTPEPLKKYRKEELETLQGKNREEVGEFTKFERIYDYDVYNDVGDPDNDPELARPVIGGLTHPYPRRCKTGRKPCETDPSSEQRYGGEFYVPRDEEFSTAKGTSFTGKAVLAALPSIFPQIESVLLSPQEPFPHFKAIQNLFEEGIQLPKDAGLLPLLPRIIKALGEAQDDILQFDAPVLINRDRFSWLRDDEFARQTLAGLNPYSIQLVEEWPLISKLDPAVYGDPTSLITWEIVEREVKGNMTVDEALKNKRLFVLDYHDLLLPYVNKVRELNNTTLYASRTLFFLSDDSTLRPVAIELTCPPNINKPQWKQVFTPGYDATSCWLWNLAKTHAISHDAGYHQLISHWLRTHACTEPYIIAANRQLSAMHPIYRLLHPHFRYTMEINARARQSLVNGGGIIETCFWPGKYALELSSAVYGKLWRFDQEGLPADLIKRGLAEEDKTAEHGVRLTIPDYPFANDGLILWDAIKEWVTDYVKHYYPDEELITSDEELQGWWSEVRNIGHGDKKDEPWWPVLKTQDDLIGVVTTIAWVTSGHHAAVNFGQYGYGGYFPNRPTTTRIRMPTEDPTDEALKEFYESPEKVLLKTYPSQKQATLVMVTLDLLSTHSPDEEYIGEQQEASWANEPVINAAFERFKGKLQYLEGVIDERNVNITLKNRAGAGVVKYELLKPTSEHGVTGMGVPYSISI

SMILES | Relative Activity (%) LOX6 [1] [%] | Relative Activity (%) LOX3 [2] [%] | Relative Activity (%) LOX6 [3] | Relative Activity (%) LOX2 [4] [%] | Photometry Relative activity (%) LOX6 [1] [%] | activity at 280 µM [3] [%] | activity at 280 µM [4] [%] | also measured
CCC=CCC1C(=O)C=CC1CCCCCCCC(=O)O (stereo not drawn) [12-OPDA, cis-(+)-12-oxophytodienoic acid] | – | – | – | – | 59 ± 10 | 50 ± 10 | 64 ± 4 | IC50 [1]: 280 to 338 µM; Mode of inhibition ([1]; 226 µM): non-competitive; IC50 [2]: 130 ± 31 µM; Ki [2]: 13 µM; Mode of inhibition [2]: non-competitive or mixed; Photometry Relative activity (%) LOX3 [2]: 35 ± 5%
O=S(=O)([O-])[O-].[Cd+2] [CdSO4] | 40±10 | 63±3 | no activity | 220 ± 18 | – | – | – | –
O=C(O)c1ccccc1O [SA, salicylic acid] | – | – | – | – | – | 103 ± 5 | 96 ± 7 | –
CC/C=C\CC1C(=O)CCC1CC(=O)OC (stereo not drawn) [MJ, methyl jasmonate] | – | – | – | – | 86 ± 6 | 94 ± 6 | 87 ± 10 | Ki [2]: 295 µM; Mode of inhibition [2]: non-competitive
O=C(O)/C=C/CCCCCCCCC(=O)O [TA, traumatic acid] | – | – | – | – | 100 ± 9 | 101 ± 12 | 95 ± 8 | Photometry Relative activity (%) LOX3 [2]: 103 ± 4%

Continued, in another order:

Relative Activity (%) LOX6 [1] [%] | Relative Activity (%) LOX3 [2] [%] | Relative Activity (%) LOX6 [3] | Relative Activity (%) LOX2 [4] [%] | SMILES | Photometry Relative activity (%) LOX6 [1] [%] | activity at 280 µM [3] [%] | activity at 280 µM [4] [%] | also measured
107±11 | 104±2 | 121 ± 15% | 690 ± 60 | [Ca+2].[Cl-].[Cl-] [CaCl2] | – | – | – | Increase of LOX6-catalyzed oxygen consumption [3]: 21%; Increase of LOX2 activity in comparison to control [4]: 590%
123±10 | 108±4 | 142 ± 15% | 170 ± 18 | [Cl-].[Cl-].[Mg+2] [MgCl2] | – | – | – | Increase of LOX6-catalyzed oxygen consumption [3]: 42%; Increase of LOX2 activity in comparison to control [4]: 70%
